Results from article PMC5011961, “In vitro antimicrobial activities of animal-used quinoxaline 1,4-di-N-oxides against mycobacteria, mycoplasma and fungi” (BMC Veterinary Research, 2016).
Values after ≈ are worked out from the molar mass of the structure shown. Like-named read-outs stand apart in the source and are kept apart here.

Legend:
[1] = system: Candida albicans; assay: Antifungal assay, macrobroth 2-fold serial dilution MIC
[2] = system: M. tuberculosis H37Ra ATCC 25177; assay: Microdilution alamar blue assay (MABA)
Method: Briefly, each of the above Mycobacterium strains was cultured at 37 °C in Middlebrook 7H9 broth supplemented with 0.2 % glycerol and 10 % Oleic Acid-Albumin-Dextrose-Catalase (Sigma, St Louis, MO, USA) until logarithmic growth was reached. About 6 × 10^6 CFU/mL inoculum of Mycobacterium strain was then added to the two fold serially diluted drug samples. The final concentration of DMSO in all assays was 2.5 % or less and this dilution also served as solvent control. The samples were assayed in triplicate. All tests were carried out in sterile flat bottom 96-well microplates. Each microplate was incubated for 5 days at 37 °C in a sealed plastic CO2-permeable bag. After 7 days of incubation, 32 μL of a mixture of freshly prepared Alamar Blue solution and 20 % sterile Tween-80 at 1:1 (v/v) were added to the growth-control well. The microplates were incubated at 37 °C for 24 h. […] A well-defined pink color was interpreted as positive bacterial growth, whereas a blue color indicated an absence of growth.

[3] = system: PPV; assay: Antiviral assay (CPE/MTT; adsorption inhibition, infection inhibition, virucidal); type: cell-based, porcine parvovirus; design: key to IC50: “--” represent not detected owing to the low inhibition ratio; conditions: PPV, mean±SD of four experiments
[4] = system: M. tuberculosis complex; assay: Combination susceptibility assay (checkerboard method), overall statements; type: cell-based; conditions: combined with rifampicin
[5] = system: Microsporum canis; assay: Antifungal assay, macrobroth 2-fold serial dilution MIC
[6] = system: M. bovis ATCC 19210; assay: microbe, parasite or virus in culture; type: cell-based, Mycobacterium bovis; conditions: Mycobacterium tuberculosis variant bovis, ATCC19210
[7] = system: mycoplasma; assay: Antimycoplasma assay, overall statements; type: cell-based; conditions: range over Mycoplasma gallisepticum and Mycoplasma hyopneumoniae strains
[8] = system: Mycoplasma gallisepticum; assay: Combination susceptibility assay (checkerboard method); type: cell-based; conditions: combined with tetracyclines (tetracycline and doxycycline), M. gallisepticum
[9] = system: Aspergillus fumigatus; assay: Antifungal assay, macrobroth 2-fold serial dilution MIC
[10] = system: Marc-145 cells; assay: Cytotoxicity assay (MTT); conditions: for TC50: Marc-145, 72 h, MTT, mean ± SD, n = 4; for MNTC: Marc-145, maximum non-cytotoxic concentration (90 % cell viability)
[11] = system: DF-1 cells; assay: Cytotoxicity assay (MTT); conditions: for TC50: DF-1, 72 h, MTT, mean ± SD, n = 4; for MNTC: DF-1, maximum non-cytotoxic concentration (90 % cell viability)
[12] = system: M. hyopneumoniae; assay: Antimycoplasma assay, MIC in microtiter plates; conditions: Mesomycoplasma hyopneumoniae
Method: (§1) Briefly, 96-well microtiter Sensititre plates containing stabilized and freeze-dried antimicrobials were used. Three wells on each plate were set as antimicrobial free growth control. Freshly thawed mycoplasma isolates with known titers were diluted in liquid medium until the number of organisms reached 10^4 color changing units/mL. 50 μL of the diluted culture was transferred into each well of the Sensititre plates. […] The plates were sealed using an adhesive foil and incubated at 36 °C for 14 days. The growth of M. hyopneumoniae was observed daily when the color of the medium changed from red to yellow (phenol red indicator), and the initial and final MICs were recorded.

[13] = system: Candida tropicalis; assay: Antifungal assay, macrobroth 2-fold serial dilution MIC; conditions: Candida tropicalis
[14] = system: PK-15 cells; assay: Cytotoxicity assay (MTT); conditions: for TC50: PK-15, 72 h, MTT, mean ± SD, n = 4; for MNTC: PK-15, maximum non-cytotoxic concentration (90 % cell viability)
[15] = system: IBDV; assay: Antiviral assay (CPE/MTT; adsorption inhibition, infection inhibition, virucidal); type: cell-based, infectious bursal disease virus; design: key to IC50: “--” represent not detected owing to the low inhibition ratio; conditions: IBDV, mean±SD of four experiments
[16] = system: Candida parapsilosis; assay: Antifungal assay, macrobroth 2-fold serial dilution MIC; conditions: Lodderomyces parapsilosis
[17] = system: Epidermophyton floccosum; assay: as above
[18] = system: Trichophyton rubrum; assay: as above
[19] = system: PRRSV; assay: Antiviral assay (CPE/MTT; adsorption inhibition, infection inhibition, virucidal); type: cell-based, porcine reproductive and respiratory syndrome virus; design: key to IC50: “--”represent not detected owing to the low inhibition ratio; conditions: PRRSV, mean±SD of four experiments
[20] = system: M. gallisepticum; assay: Antimycoplasma assay, MIC in microtiter plates; conditions: Mycoplasmoides gallisepticum
Method: as §1

[21] = system: Cryptococcus neoformans; assay: Antifungal assay, macrobroth 2-fold serial dilution MIC
[22] = system: M. tuberculosis H37Rv ATCC 27294; assay: Microdilution alamar blue assay (MABA); type: cell-based, Mycobacterium tuberculosis; conditions: Mycobacterium tuberculosis, read-out: MIC
[23] = system: M. tuberculosis H37Rv ATCC 27294; design: method as in PMID 14561478; conditions: previous report; cited from earlier work
[24] = A. fumigatus 3.5301, deep fungi
[25] = A. fumigatus 3.5352, deep fungi
[26] = C. tropicalis 2.2735, deep fungi
[27] = M. gallisepticum BG44T (10^4ccu/mL)
[28] = M. gallisepticum MG-HS (10^6ccu/mL)
[29] = M. gallisepticum PG31 (10^8 ccu/mL)

| SMILES | MIC ([1]; C. albicans 2.4122, deep fungi) [µg/mL] | MIC ([1]; C. albicans 90028, deep fungi) [µg/mL] | MIC [2] [µg/mL] | IC50 ([3]; Inactivation) | IC50 ([3]; Prevention) | IC50 ([3]; Treatment) | FIC [4] | MIC [5] [µg/mL] | MIC ([5]; CBS113480) [µg/mL] | MIC [6] [µg/mL] | Combined effect [8] | MIC [9, 24] [µg/mL] | MIC [9, 25] [µg/mL] | TC50 [10] [µg/mL] | MNTC [10] [µg/mL] | TC50 [11] [µg/mL] | MNTC [11] [µg/mL] | MIC [12] [µg/mL] | MIC [13, 26] [µg/mL] | MIC ([13]; C. tropicalis 7349, deep fungi) [µg/mL] | other results |
| --- | --- | --- | --- | --- | --- | --- | --- | --- | --- | --- | --- | --- | --- | --- | --- | --- | --- | --- | --- | --- | --- |
| Cc1c(C(=O)/C=C/c2ccccc2)[n+]([O-])c2ccccc2[n+]1[O-] [QCT, quinocetone] | > 64 | > 64 | 64 (≈ 209 µM) | -- | -- | -- | 0.75 | 16 (≈ 52.2 µM) | 8 (≈ 26.1 µM) | 4 (≈ 13.1 µM) | additive (0.5 to 1, additive) | 64 (≈ 209 µM) | 64 (≈ 209 µM) | 8.90 ± 1.05 (≈ 29.1 µM) | 0.39 | 9.89 ± 1.08 (≈ 32.3 µM) | 0.25 | 16 (≈ 52.2 µM) | > 64 | > 64 | MIC [7]: 8 to 16 µg/mL (≈ 26.1 to 52.2 µM); TC50 [14]: 2.38 ± 0.27 µg/mL (≈ 7.77 µM); MNTC [14]: 0.2 µg/mL; IC50 ([15]; Inactivation): --; IC50 ([15]; Prevention): --; IC50 ([15]; Treatment): --; MIC [16]: 64 µg/mL (≈ 209 µM); MIC [17]: 32 µg/mL (≈ 104 µM); MIC ([17]; CBS566094): 32 µg/mL (≈ 104 µM); MIC [18]: 32 µg/mL (≈ 104 µM); MIC ([18]; ATCC4438): 32 µg/mL (≈ 104 µM); IC50 ([19]; Inactivation): --; IC50 ([19]; Prevention): --; IC50 ([19]; Treatment): --; MIC [20, 27]: 8 µg/mL (≈ 26.1 µM); MIC [20, 28]: 16 µg/mL (≈ 52.2 µM); MIC [20, 29]: 16 µg/mL (≈ 52.2 µM); MIC [21]: 64 µg/mL (≈ 209 µM); MIC [22]: 4 µg/mL (≈ 13.1 µM) |
| CC(=O)c1c(C)[n+]([O-])c2ccccc2[n+]1[O-] [MEQ, mequindox] | 32 (≈ 147 µM) | 64 (≈ 293 µM) | 32 (≈ 147 µM) | -- | -- | -- | 0.75 | > 64 | > 64 | 8 (≈ 36.7 µM) | additive (0.5 to 1, additive) | > 64 | > 64 | 41.28 ± 1.28 (≈ 189 µM) | 1.0 | 40.01 ± 1.27 (≈ 183 µM) | 2.0 | 32 (≈ 147 µM) | 64 (≈ 293 µM) | > 64 | MIC [23]: 3.13 µg/mL (≈ 14.3 µM); TC50 [14]: 17.86 ± 1.28 µg/mL (≈ 81.8 µM); MNTC [14]: 0.5 µg/mL; IC50 ([15]; Inactivation): --; IC50 ([15]; Prevention): --; IC50 ([15]; Treatment): --; MIC [16]: 64 µg/mL (≈ 293 µM); MIC [17]: > 64 µg/mL; MIC ([17]; CBS566094): 64 µg/mL (≈ 293 µM); MIC [18]: > 64 µg/mL; MIC ([18]; ATCC4438): > 64 µg/mL; IC50 ([19]; Inactivation): --; IC50 ([19]; Prevention): --; IC50 ([19]; Treatment): --; MIC [20, 27]: 16 µg/mL (≈ 73.3 µM); MIC [20, 28]: 32 µg/mL (≈ 147 µM); MIC [20, 29]: 16 µg/mL (≈ 73.3 µM); MIC [21]: 32 µg/mL (≈ 147 µM); MIC [22]: 4 µg/mL (≈ 18.3 µM) |
